Key:
BT474 cells = assay: Measurement of lipid peroxidation (BODIPY C11, flow cytometry); type: cell-based, human; conditions: with RSL3
Experimental: (§1) FIG. 2 A-E. mTORC1, instead of mTORC2, suppresses ferroptosis. (A) MDA-MB-453 and BT474 were treated with CCI-779 (0.5 μM), RSL3 (1 μM for MDA-MB-453 cells and 0.5 μM for BT474 cells), and Fer-1 (1 μM) as indicated. (B) Cells were seeded in 6-well plate, 4×10^5 cells per well and incubated overnight. MDA-MB-453 and BT474 cells were treated as indicated. CCI-779, 0.5 μM; RSL3, 1 μM for MDA-MB-453 cells and 0.5 μM for BT474 cells; Fer-1, 1 μM. Cells were stained with 5 μM C1I-BODIPY followed by flow cytometry after 8 h-treatment. (C) 3D spheroids were treated as indicated. CCI-779, 0.5 μM; RSL3, 0.5 μM; Fer-1, 1 μM. Top panel, dead cells were stained by SYTOX Green (scale bar, 100 μm). Bottom panel, cell viability was assayed by measuring cellular ATP levels. (D) Cells expressing shRNAs targeting RPTOR or RICTOR were treated as indicated. CCI-779, 0.5 μM; RSL3, 0.5 μM; Fer-1, 1 μM. (E) Lipid peroxidation of samples as in panel D were measured.
(§2) FIG. 7 A-J. PI3K-AKT-mTOR signaling regulates ferroptosis sensitivity. (A) Cells were treated as indicated. GDC-0941, 2 μM; MK-2206, 2 μM; RSL3, 1 μM; Fer-1, 1 μM. Lipid peroxidation was measured. (B) Cells were treated with indicated conditions. Torin, 1 μM; RSL3, 1 μM for MDA-MB-453 cells and 0.5 μM for BT474 cells; Fer-1, 1 μM. Cell death was measured. (C) Cells were treated with indicated conditions. RSL3, 10 μM for MCF cells and PC-3 cells, 5 μM for T47D cells, 1 μM for HepG2 cells; Torin, 1 μM; CCI-779, 0.5 μM. (D) Cells were treated as indicated. CCI-779, 0.5 μM; Torin, 1 μM; Fer-1, 1 μM. Cell death was staining by propidium iodide (PI) (red) or Sytox Green (green) (scale bar, 100 μm). (E-F) 3D spheroids for MDA-MB-453 cells and MCF7 cells were treated as indicated. CCI-779, 0.5 μM; RSL3, 1 μM for MDA-MB-453 cells and 5 μM for MCF7 cells; Fer-1, 1 μM. Top panels, cell death staining (scale bar, 100 m). Bottom panels, cell viability. (G) MDA-MB-453 cells were treated as indicated for 24 h. RSL3, 1 μM; CCI-779, 0.5 μM; GDC-0941, 2 μM; MK-2206, 2 μM; Dabrafenib, 2 μM; SCH772984, 2 μM; Fer-1, 1 μM. (H) Western blot was performed to detect RPTOR and RICTOR knockdown efficiency. (I) HT1080 cells and MDA-MB-231 cells (both with wild-type PI3K-AKT-mTOR pathway) were treated as indicated. RSL3, 0.1 μM for HT1080 and 0.25 μM for MDA-MB-231; Torin, 1 μM; CCI-779, 0.5 μM; Fer-1, 1 μM. Cell death was measured. (J) Two lines of PI3K-AKT-mTOR pathway wild-type cells (HT1080 and MDA-MB-231) and two lines of cells harboring activating mutation of the pathway (BT474 and MDA-MB-453) were treated as indicated. RSL3, 0.25 μM; Fer-1, 1 μM. Western blot was performed to detect the level of pT389 S6K.
(§3) FIG. 11 A-H. SCD1 protects cells against ferroptosis. (A) Cells were pretreated cells with 5 μM CAY10566 overnight. Cells were treated as indicated. RSL3, 1 μM for MDA-MB-453 and 0.5 μM for BT474; Fer-1, 1 μM; CAY10566, 5 μM; Fer-1, 1 μM. (B) Western blot, measuring the SCD knockout efficiency in BT474, MDA-MB-453 and MCF7 cells. (C) MCF cells (sgCtrl, sgSCD #1 and sgSCD #2) were treated as indicated. RSL3, 5 μM; Fer-1, 1 μM. (D) Cells were treated as indicated. RSL3, 1 μM for MDA-MB-453 cells and 0.5 μM for BT474 cells; Fer-1, 1 μM. (E) Cells were treated as indicated. RSL3, 1 μM for MDA-MB-453 cells and 0.5 μM for BT474 cells; Fer-1, 1 μM; CCI-779, 0.5 μM; GDC-0941, 2 μM; MK-2206, 2 μM. (F) SCD1 was overexpressed in BT474 cells. Cells were treated as indicated. RSL3, 0.5 μM; CCI-779, 0.5 μM. Lipid peroxidation was measured. (G) SCD1 was overexpressed in A549 cells and determined by western blot. Cells were treated as indicated. RSL3, 0.25 μM; CCI-779, 0.5 μM. Lipid peroxidation and cell death were measured 6 h and 24 h after treatment, respectively. (H) SCD1 was overexpressed in BT474 cells harboring SREBF1 knockout. SCD1 and SREBP1 level were determined by western blot. Cells were treated as indicated. RSL3, 0.5 μM; CCI-779, 0.5 μM; Fer-1, 1 μM.
(§4) Lipid peroxidation was analyzed by flow cytometry. […]

MDA-MB-453 cells = assay: as above; type: cell-based, human; conditions: with RSL3
Experimental: as §1, §2, §3, §4

Compound	sensitization to lipid peroxidation (BT474 cells)	sensitization to lipid peroxidation (MDA-MB-453 cells)
NC1(c2ccc(-c3nc4ccn5c(=O)[nH]nc5c4cc3-c3ccccc3)cc2)CCC1 [MK-2206]	sensitized	sensitized
Cc1nnc(-c2ccc(N3CCC(Oc4cc(F)ccc4Cl)CC3)nn2)o1 [CAY10566]	sensitized the effect of RSL3	sensitized the effect of RSL3
CS(=O)(=O)N1CCN(Cc2cc3nc(-c4cccc5[nH]ncc45)nc(N4CCOCC4)c3s2)CC1 [GDC-0941]	sensitized	sensitized
CCCc1cc(-c2nc(-c3ccc(C)cc3)cs2)ccn1 [Fatostatin A]	sensitized	sensitized
CO[C@H]1C[C@@H]2CC[C@@H](C)[C@@](O)(O2)C(=O)C(=O)N2CCCC[C@H]2C(=O)O[C@H]([C@H](C)C[C@@H]2CC[C@@H](OC(=O)C(C)(CO)CO)[C@H](OC)C2)CC(=O)[C@H](C)/C=C(\C)[C@@H](O)[C@@H](OC)C(=O)[C@H](C)C[C@H](C)/C=C/C=C/C=C/1C [CCI-779, Temsirolimus]	sensitize	sensitize

Source: patent US20230414626A1, “INDUCTION OF FERROPTOSIS FOR CANCER THERAPY” (Memorial Sloan Kettering Cancer Center, priority 2020, published 2023)
